Test results published in patent US6756200B2, “Aberrantly methylated genes as markers of breast malignancy” (The Johns Hopkins University School of Medicine, priority 2001, dated 2004).
Entries after “also recorded” stand apart in the source; their conditions may differ.

What was measured:
Type in all cases: cell-based, human
breast cancer cell lines = assay: Growth inhibition of a panel of breast cancer cell lines by RA; settings: T47D, MDA-MB-435, MCF7 and ZR75-1 cell lines; 1 μM RA, 48 h
Source text: Cell cultures Human epithelial mammary cells (HEMC) from reduction mammoplasty including three mortal strains, 184, 48R and 172R, and two immortal strains, 184A1 and 184B5, were obtained and cultured according to the protocols designed by Dr Martha Stampfer (see the HMEC Homepage, http://www.lbl.gov/*mrgs/index.htlm) using Clonetics (Walkersville, Md., USA) reagents. Human breast cancer cell lines were maintained in Dulbecco's modified Eagle's medium (GIBCO) (Hs578t,MCF-7, MDA-MB-231 and T47D) or IMEM medium (Biofluids) (MDA-MB-435, MDA-MB-468, ZR751) with 5% fetal calf serum (FCS). For drug treatments, exponentially growing cells were seeded in 10 cm^2 plates at a density of 36105 cells/plate or in 6-well plates at 16105 cells/well. Cells were allowed to attach overnight before the addition of the appropriate concentration of 5-Aza-2′ deoxycytidine (5-Aza-CdR) (Sigma), Trichostatin A (TSA) (Sigma) or RA(Sigma). When reduction of retinoids was required, cells were treated in either medium with 0.5% FCS or charcoal-dextran stripped FCS (Hyclone). At the indicated time points, both attached and detached cells were harvested, counted with Trypan Blue (Life Technologies) and processed for DNA or RNA extraction. 5-Aza-CdR was dissolved in 0.45% NaCl containing 10 mM sodium phosphate (pH 6.8). […]

RAR β2 promoter = assay: Methylation of RAR β2 promoter CpG island (Southern blotting, MSP) after drug treatment; settings: MCF7 cells; in the presence of RA
RAR β = RAR β expression by RT-PCR after drug treatment
Protocol: Human breast cancer cell lines were maintained in Dulbecco's modified Eagle's medium (GIBCO) (Hs578t,MCF-7, MDA-MB-231 and T47D) or IMEM medium (Biofluids) (MDA-MB-435, MDA-MB-468, ZR751) with 5% fetal calf serum (FCS). For drug treatments, exponentially growing cells were seeded in 10 cm^2 plates at a density of 36105 cells/plate or in 6-well plates at 16105 cells/well. […] When reduction of retinoids was required, cells were treated in either medium with 0.5% FCS or charcoal-dextran stripped FCS (Hyclone). At the indicated time points, both attached and detached cells were harvested, counted with Trypan Blue (Life Technologies) and processed for DNA or RNA extraction. 5-Aza-CdR was dissolved in 0.45% NaCl containing 10 mM sodium phosphate (pH 6.8). Trichostatin A and all-trans-retinoic acid (RA) (Sigma) were reconstituted in absolute ethanol (solvent).

MDA-MB-231 cells = assay: Growth inhibition (%) by cell counting with Trypan Blue
Source text: Cell cultures Human epithelial mammary cells (HEMC) from reduction mammoplasty including three mortal strains, 184, 48R and 172R, and two immortal strains, 184A1 and 184B5, were obtained and cultured according to the protocols designed by Dr Martha Stampfer (see the HMEC Homepage, http://www.lbl.gov/*mrgs/index.htlm) using Clonetics (Walkersville, Md., USA) reagents. Human breast cancer cell lines were maintained in Dulbecco's modified Eagle's medium (GIBCO) (Hs578t,MCF-7, MDA-MB-231 and T47D) or IMEM medium (Biofluids) (MDA-MB-435, MDA-MB-468, ZR751) with 5% fetal calf serum (FCS). For drug treatments, exponentially growing cells were seeded in 10 cm^2 plates at a density of 36105 cells/plate or in 6-well plates at 16105 cells/well. Cells were allowed to attach overnight before the addition of the appropriate concentration of 5-Aza-2′ deoxycytidine (5-Aza-CdR) (Sigma), Trichostatin A (TSA) (Sigma) or RA(Sigma). When reduction of retinoids was required, cells were treated in either medium with 0.5% FCS or charcoal-dextran stripped FCS (Hyclone). At the indicated time points, both attached and detached cells were harvested, counted with Trypan Blue (Life Technologies) and processed for DNA or RNA extraction. 5-Aza-CdR was dissolved in 0.45% NaCl containing 10 mM sodium phosphate (pH 6.8). Trichostatin A and all-trans-retinoic acid (RA) (Sigma) were reconstituted in absolute ethanol (solvent).

14.3.3σ = 14.3.3σ expression in the same treated samples; settings: same samples: MDA-MB-231 and MCF-7 cells treated with 5-aza-deoxyC or TSA
Source text: (§1) Cell lines and finite life span cultures Cell lines were obtained from ATCC (Rockville, Md.) and grown according to conditions specified. Also utilized were three independent cultures of finite life span human mammary epithelial cells (HMEC): 16637 (Clonetics, Walkersville, Md.) and 1-26, 3-14 (kindly provided by Dr. Steve Ethier, Univ. Michigan, Ann Arbor, Mich.).

σ CpG island = assay: Methylation-specific PCR of the σ CpG island after 5-aza-dC; settings: Hs578t and MDA-MB-435 cells; 0.75 μM 5-aza-dC for 3 days
Protocol: Methylation-specific PCR (MSP). One μg genomic DNA was treated with sodium bisulfite as described in (Herman, et al. (1996) Proc. Natl. Acad. Sci. USA 93, 9821-9826), and was analyzed by MSP using a primer set that covered CG dinucleotide numbers 3, 4, 8 and 9. Primers specific for methylated DNA: 5′-[…]-3′ (sense; SEQ ID NO:37) and 5′-[…]-3′ (antisense; SEQ ID NO:38), and primers specific for unmethylated DNA: 5′-[…]-3′ (sense; SEQ ID NO:39) and 5′-[…]-3′(antisense; SEQ ID NO:40) yielded a 105-107 bp PCR product. The PCR conditions were as follows: 1 cycle of 95° C. for 5 min; 31 cycles of 95° C. for 45s, 56° C. for 30s and 72° C. for 30s; and 1 cycle of 72° C. for 4 min.
(§2) Cells were seeded at a density of 2×10^6 cells per 100-mm plate.

cyclin D2 = assay: Cyclin D2 mRNA re-expression by RT-PCR after 5-aza-dC or TSA; settings: MDAMB231 and MCF7 cells
Protocol: RT-PCR. […] PCR was performed using the primers [NT] (sense; SEQ ID NO:15) and [NT] […] (sense; SEQ ID NO: 17) and [NT] […] (sense; SEQ ID NO:19) and [NT] antisense; SEQ ID NO:20).

σ = σ gene expression by RT-PCR after 5-aza-dC; settings: Hs578t and MDA-MB-435 cells; 0.75 μM 5-aza-dC for 3 days
Protocol: as §2
RT-PCR. […] PCR was performed using the σ-specific primers 5′-[…]-3′ (SEQ ID NO:41) and 5′-[…]-3′ (SEQ ID NO:42) using buffer conditions described herein. The PCR conditions were: 1 cycle of 95° C. for 5 min; 30 cycles of 60° C. for 45s, 72° C. for 45s and 95° C. for 45s. PCR samples were resolved by electrophoresis in a 2% agarose gel.

WT1 = WT1 expression by RT-PCR after treatment of breast cancer cell lines with 5-aza-dC or TSA
Source text: as §1
RT-PCR for WT1 mRNA Methods for RNA extraction and RT-PCR are known to those of skill in the art. The sequences of the primers used are as follows: for amplifying the 555 bp region surrounding WT1 exon 5, 5′-[…]-3′ (sense, nucleotides 882-901; Q ID NO:1) and 5′-[…]-3′ (antisense, nucleotides 1416-1437; SEQ ID NO:2); for amplifying the 382 bp region surrounding the KTS insert, 5′-[…]-3′ (sense, nucleotides 1320-1339; SEQ ID NO:3) and 5′-[…]-3′ (antisense, nucleotides 1685-1702; SEQ ID NO:4). Amplification was performed using a hot-start protocol: samples were heated to 94° C. for 4 minutes and then cooled to 80° C. prior to the addition of Taq polymerase (RedTaq, Sigma, St. Louis, Mo.). Samples were then heated to 94° C. for 30 seconds followed by either 50° C. for 30 seconds (for the KTS primers) or 56° C. for 30 seconds (for the Exon 5 primers) and then 72° C. for 1 minute for 40 cycles. PCR products were resolved by electrophoresis, using a 2% agarose gel for the exon 5-splice variants and a 12% polyacrylamide gel to resolve the KTS insert variants. Co-amplification of the ribosomal RNA 36B4 was performed as an internal control using the following primers: 5′-[…]-3′ (sense; SEQ ID NO:5) and 5′-[…]-3′ (antisense; SEQ ID NO:6).

HOXA5 = HOXA5 mRNA re-expression by RT-PCR after 5-aza-dC; settings: MDA-MB-231 cells; 0.75 μM 5-aza-dC
Protocol: RT-PCR was performed using primers: 5′ […]-3′ (sense; SEQ ID NO:75) and 5′[…]-3′ (antisense; SEQ ID NO:76).

cyclin D2 promoter = assay: Methylation-specific PCR of the cyclin D2 promoter after 5-aza-dC; settings: MDAMB231 and MCF7 cells; 0.75 μM 5-aza-dC
Protocol: Methylation-specific PCR (MSP). One μg genomic DNA or the 50 ul extract of microdissected cells was treated with sodium bisulfite as described in Herman J G, (1996), and was analyzed by MSP using primer sets located within the CpG-rich island in the cyclin D2 promoter. Primers specific for unmethylated DNA were 5′-[…]-3′ (sense; SEQ ID NO:21) and 5′-[…]-3′ (antisense; SEQ ID NO:22) and yielded a 223 base-pairs PCR product. Primers specific for methylated DNA were 5′-[…]-3′ (sense; SEQ ID NO:23) and 5′-[…]-3′ (antisense; SEQ ID NO:24) and yielded a 276 base-pair PCR product. The PCR conditions were as follows: 1 cycle of 95° C. for 5 min; 35 cycles of 95° C. for 30s, 55° C. for 30s and 72° C. for 45s; and 1 cycle of 72° C. for 5 min.

MCF-7 cells = assay: Pon A induction of HOXA5 in MCF-7 clones with ecdysone-inducible HOXA5: p53 pathway and apoptosis
Source text: Immunoblot Analysis: Proteins were visualized by Western analysis and 10% SDS-PAGE. The primary antibodies [anti-HOXA5 (HOXA5-2, BABCO), anti-p53 (AB-6, Oncogene Science), or anti-β-actin (AC-15, Sigma), anti-p21 (15091A, Pharmingen), anti-Mdm2 (65101A, Pharmingen), anti-PARP (AB-2, Oncogene Sciences), anti-dynein (Zymed) and anti- Na+, K+-ATPase (Ed Benz, Johns Hopkins) (also used as loading controls, with actin)] were used at 1:1000 dilution.
To test this possibility, breast cancer cells, MCF-7 and ZR75.1, which harbor wildtype p53 genes, were transfected with the full length HOXA5 and the ΔHOXA5 (homeodomain-deleted) expression plasmids and tested for colony-forming ability. No surviving colonies were obtained from HOXA5-transfected cells whereas those transfected with ΔHOXA5 and the vector control generated colonies with equal efficiency. To obtain stable cultures that could express HOXA5, clones of MCF-7 cells were generated in which the HOXA5 gene was placed under the control of an ecdysone-inducible promoter. Within 3 hours after induction of HOXA5 expression by the ecdysone analog, Ponasterone A (Pon A), the levels of p53 mRNA rose by 2-fold.

[1] = 0.4 mM 5-Aza-CdR and/or 1 μM RA
[2] = 2 days, 100 ng/ml TSA and/or RA

Compound: CC1=C(/C=C/C(C)=C/C=C/C(C)=C/C(=O)O)C(C)(C)CCC1 [RA, all-trans-retinoic acid]
- growth inhibition (breast cancer cell lines): growth inhibition
- methylation at RAR β2 (RAR β2 promoter): persistence of methylation
- RAR β expression (RAR β; T47D, MDA-MB-435, MCF7 and ZR75-1 cell lines, 1 μM RA, 48 h): induction of RAR β expression
- growth inhibition (MDA-MB-231 cells; [1]): 52%
- growth inhibition (MDA-MB-231 cells; [2]): 52%

Compound: Nc1ncn([C@H]2C[C@H](O)[C@@H](CO)O2)c(=O)n1 [5-aza-dC, 5-aza-2′-deoxycytidine]
- expression of 14.3.3σ (14.3.3σ): restored expression
- methylation of the σ CpG rich region (MSP) (σ CpG island): demethylation
- cyclin D2 mRNA expression (RT-PCR) (cyclin D2; 0.75 μM 5-aza-dC): restored
- σ gene expression (RT-PCR) (σ): reactivation of gene expression
- WT1 expression (WT1; MCF-7 cells, 0.75 μM 5-aza-dC, listed as 5-aza-deoxyC): not seen; also recorded: did not cause WT1 expression
- WT1 expression (WT1; MDA-MB-231 cells, 0.75 μM 5-aza-dC, listed as 5-aza-deoxyC): results in re-expression of the gene; also recorded: resulted in WT1 expression
- expression of HOXA5 mRNA (HOXA5): re-initiated
- growth inhibition (MDA-MB-231 cells; [1]): 63%
- cyclin D2 promoter methylation (MSP) (cyclin D2 promoter): partially demethylated

Compound: CC(C)CC[C@@H](O)[C@](C)(O)[C@H]1CC[C@@]2(O)C3=CC(=O)[C@@H]4C[C@@H](O)[C@@H](O)C[C@]4(C)[C@H]3CC[C@]12C [Pon A, Ponasterone A]
- DNA laddering (MCF-7 cells): observed
- levels of Bax protein (MCF-7 cells): not accompanied by a detectable change
- p53, p21, Mdm2 and HOXA5 induction (Western blotting) (MCF-7 cells): 2-5 fold
- cells with micronucleus formation, membrane blebbing and ghost cell features (MCF-7 cells; acridine orange staining): 70%
- cell death (MCF-7 cells; after 48 hours): 80-90%
- poly (ADP-ribose) polymerase cleavage (MCF-7 cells; by 12 hours): underwent cleavage
- cell morphology (MCF-7 cells; by 24 hours): cell shrinkage
- levels of p53 mRNA (MCF-7 cells; within 3 hours after induction): 2 fold

Compound: CC(/C=C/C(=O)NO)=C\[C@@H](C)C(=O)c1ccc(N(C)C)cc1 [TSA, Trichostatin A]
- expression of 14.3.3σ (14.3.3σ): restored expression
- RAR β mRNA expression (RT-PCR) (RAR β; MDA-MB-231 cells, 2 days, 100 ng/ml TSA with 1 μM RA): can reactivate RAR β expression
- cyclin D2 mRNA expression (RT-PCR) (cyclin D2; 100 ng/ml TSA): re-expression
- WT1 expression (WT1; MDA-MB-231 and MCF-7 cells (either cell line), 100 ng/ml TSA): no effect; also recorded: nor did TSA restore expression
- growth inhibition (MDA-MB-231 cells; [2]): 77%
